Measurements published in US20100075907A1, “NEUROMEDIN U RECEPTOR AGONISTS AND USES THEREOF” (priority 2006, published 2010).
“Also recorded” adds a separate entry of the source. Each block holds one substance with its values, some of them ahead of it. Non-standard residues stand in square brackets, D forms with d. (PEG)2 40 kDa = branched PEG of 40 kDa linked via the Cys side-chain thiol (code C2 = Cys(PEG)2 40 kDa)

Tests used:
diet-induced obese mice = assay: Feeding study in diet-induced obese mice (food intake, body weight); type: in vivo; details: for % Food intake (FI) reductions Day 1: Day 1, based on vehicle responses; for % Food intake (FI) reductions Day 2: Day 2, based on vehicle responses; for % Food intake (FI) reductions Day 3: Day 3, based on vehicle responses; for anorectic effect: acute administration; for body weight / duration of reductions in food intake: single acute subcutaneous administration
Description: NMUR1 knockout (Nmur1−/−) mice were generated using standard homologous recombination techniques. Nmur1 mice were subsequently transferred to Taconic Farms where they were either maintained on a 75% C57BL/6×25% 129S6/SvEv mixed genetic background or backcrossed six generations to C57BL/6. NMUR2 knockout (Nmur2−/−) mice were licensed from Deltagen Inc., San Mateo, Calif. and subsequently transferred to Taconic Farms where they were either maintained on a 75% C57BL/6×25% 129/OlaHsd mixed genetic background or backcrossed for seven generations to C57BL/6. NMUR1 and NMUR2 double knockout (Nmur1&2−/−) mice were generated by crossing N6 Nmur1−/− mice to N7 Nmur2−/− mice. Mice were individually housed in Tecniplast cages in a conventional SPF facility. Mice were initially maintained on a regular chow diet and then early in their life were switched to a high fat diet (D12492: 60% kcal from fat; Research Diets, Inc., New Brunswick, N.J.) with ad libitum access to water in a 12-hour light/12-hour dark cycle.
Ad libitum fed male diet-induced obese mice were weighed and dosed either i.p. or s.c. about 30 minutes prior to the onset of the dark phase of the light cycle and provided with a preweighed aliquot of high fat diet D12492 which was then weighed 2 hours and 18 hours (day 1), 42 hours (day 2), 66 hours (day 3), and 90 hours (day 4) after the onset of the initial dark phase. Mice were weighed at the 18, 42, 66 and 90 hour time points.

hNMUR1 = biological target: T1, hNMUR1 (Homo sapiens, UniProt Q9HB89); assay: FLIPR calcium mobilization assay, human NMUR1; type: cell-based; design: expressed in transfected cells; host or cells: FLP-In CHO or HEK-293 FLP-In cells (pcDNA5); HEK-293/aeq17 lines (pIRES-puro) were also made; details: human NMUR1
T1 sequence (Q9HB89 1-426): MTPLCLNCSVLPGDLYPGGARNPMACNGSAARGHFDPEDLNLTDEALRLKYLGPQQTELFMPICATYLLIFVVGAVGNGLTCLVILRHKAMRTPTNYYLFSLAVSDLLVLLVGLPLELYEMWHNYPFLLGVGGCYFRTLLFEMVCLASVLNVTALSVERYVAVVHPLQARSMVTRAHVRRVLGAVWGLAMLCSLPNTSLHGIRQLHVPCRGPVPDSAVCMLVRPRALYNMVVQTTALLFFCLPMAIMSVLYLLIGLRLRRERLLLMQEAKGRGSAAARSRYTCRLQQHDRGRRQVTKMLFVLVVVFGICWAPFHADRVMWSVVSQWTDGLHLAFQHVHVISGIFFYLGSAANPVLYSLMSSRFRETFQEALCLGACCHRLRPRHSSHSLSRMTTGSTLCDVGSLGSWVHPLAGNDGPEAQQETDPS
Description: (§1) Human, mouse or rat cDNAs encoding NMUR1 or NMUR2 (as described in Howard et al. Nature 406: 70-74 (2000) were subcloned in pcDNA5 (Invitrogen) and transfected into FLP-In CHO cells and HEK-293 FLP-In cells purchased from Invitrogen (Carlsbad, Calif.) using lipofectamine (Invitrogen). The Flp-In system allows integration and expression of a particular gene of interest at a specific genomic location utilizing the Flp recombinase from yeast. The transfected cells were selected by growth in medium containing 200 μg/mL hygromycin (Invitrogen). Populations were frozen at early passage numbers, and these stocks were used for further studies. Stable clones that expressed the mRNAs were identified functionally by FLIPR as well as by RT-PCR. […] Two different rodent NMUR1 cell lines were thus generated: one with the codon as predicted from the genomic databases and another cell line with an engineered methionine (ATG) as the start codon. Additionally, stable cell lines expressing the human receptors were generated in HEK-293/aeq17 cells which stably express the aequorin gene under the CMV promoter. The human NMUR2 cDNA was cloned into pcDNA3.1 and human NMUR1 was subcloned into pIRES-puro (Clontech, Mountain View, Calif.), after transfection cells were selected in media containing G418 and either hygromycin (NMUR2) or puromycin (NMUR1).
(§2) The NMU receptors signal primarily through Gαq/11 proteins; therefore calcium mobilization assays can be utilized for functional activity.
(§3) Stable cell lines expressing human and or rodent NMUR1 or human NMUR2 receptors were plated at a density of 12,000 cells per well overnight on poly-lysine coated 384-well black-walled plates. The following day, the media was removed from the plates and the cells were subsequently loaded with Fluo-3 (Molecular Probes), a calcium sensitive dye, diluted in FLIPR buffer (1× Hank's buffered saline containing 20 mM HEPES, 0.1% BSA, 2.5 mM probenecid (Sigma) and 1.6 mM TR40). All reagents are from Invitrogen unless otherwise noted. Peptide stocks were resuspended in DMSO at a stock concentration of 2 mM and diluted in FLIPR buffer on the day of the experiment to a 4 μM working stock solution.
(§4) After a 90 minute incubation at room-temperature, cell plates were loaded onto a FLIPR (Molecular Devices) to monitor cellular fluorescence (excitation=488 nm; emission=540 nm) before and after compound/peptide addition. Eight to twelve point dose responses were tested on NMUR-expressing cell lines using FLIPR with 1 μM peptide as the highest dose. The response after peptide addition was taken as the maximum fluorescence units minus the fluorescence immediately prior to stimulation for each well. EC50 values were calculated using GraphPad Prism (San Diego, Calif.) software.
(§5) In vitro responses of Neuromedin U receptor agonists (NMU1 to NMU25) in the FLIPR assay for human (Table 3), mouse (Table 4) and rat (Table 5) NMUR1 and NMUR2. EC50s are reported in nM values. Percent activity refers to the maximum response at 1 μM compared to the hNMU-25 response at the same concentration. NT=not tested.

hNMUR2 = hNMUR2 (Homo sapiens, UniProt Q9GZQ4); assay: FLIPR calcium mobilization assay, human NMUR2; type: cell-based; design: expressed in transfected cells; host or cells: FLP-In CHO or HEK-293 FLP-In cells (pcDNA5); HEK-293/aeq17 lines (pcDNA3.1) were also made; details: human NMUR2
Sequence of hNMUR2 (Q9GZQ4 whole entry): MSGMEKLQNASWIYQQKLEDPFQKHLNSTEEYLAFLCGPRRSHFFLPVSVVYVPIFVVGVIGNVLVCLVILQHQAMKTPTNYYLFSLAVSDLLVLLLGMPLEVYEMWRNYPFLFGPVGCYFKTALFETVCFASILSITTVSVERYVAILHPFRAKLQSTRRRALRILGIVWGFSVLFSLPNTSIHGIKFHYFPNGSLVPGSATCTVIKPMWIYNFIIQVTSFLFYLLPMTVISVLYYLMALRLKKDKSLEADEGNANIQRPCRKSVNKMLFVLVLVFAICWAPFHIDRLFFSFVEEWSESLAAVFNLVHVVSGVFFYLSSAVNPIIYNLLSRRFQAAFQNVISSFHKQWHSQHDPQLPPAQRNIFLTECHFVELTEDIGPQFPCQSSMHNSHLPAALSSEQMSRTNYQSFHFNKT
Description: as §1, §2, §3, §4, §5

[1] = Pharmacokinetic analysis using the FLIPR bioassay; type: in vivo; details: mice, 10 mg/kg subcutaneously, compared with hNMU-25
Procedure: Neuromedin U receptor agonist NMU12 exposure levels in dosed animals were measured using the bioassay and compared with hNMU-25 exposure levels. Animals were dosed subcutaneously with 10 mg/kg NMU12 or hNMU-25 and plasma was collected at various time points post-dose. The bioassay was a FLIPR-based assay, which was performed essentially as described above with the following modifications. Sample preparation prior to the assay was performed on ice to minimize degradation of plasma samples. The assay was run with 4% plasma as the final concentration. A three-point titration was done with the dosed plasma and tested on human NMUR1-expressing cell lines using FLIPR. The response after sample addition was taken as the maximum fluorescence units minus the fluorescence immediately prior to stimulation for each well. In addition to a three-point titration of dosed plasma samples, a 16-point titration of the peptide (hNMU-25 or NMU12) was run in 4% plasma (naive plasma) to serve as the standard. The concentration of the peptide in plasma was calculated based on extrapolations from the appropriate standard using the GraphPad Prism software.

Substance: Ac-C2ASQSRGYFLFRPRN-CONH2 (Ac-C((PEG)2 40 kDa)ASQSRGYFLFRPRN-NH2) [NMU18, C2 = Cys(PEG)240 kDa]
extension of serum half-life by PEGylation (diet-induced obese mice): two days | Body weight (BW) change (in grams) {relative to vehicle} Day 1 (diet-induced obese mice; 10 mg/kg): −2.6 grams | % Food intake (FI) reductions Day 1 (diet-induced obese mice; 10 mg/kg): 71% | Body weight (BW) change (in grams) {relative to vehicle} Day 2 (diet-induced obese mice; 10 mg/kg): −0.2 grams | % Food intake (FI) reductions Day 2 (diet-induced obese mice; 10 mg/kg): 40%

EC50 (hNMUR1; FLIPR): 79.6 nM | % Activity (hNMUR1; maximum response at 1 μM compared to hNMU-25 response at same concentration): 91.4% | EC50 (hNMUR2; FLIPR): 36.1 nM | % Activity (hNMUR2; maximum response at 1 μM compared to hNMU-25): 91.8%
Substance: Ac-C2GYFLFRPRN-CONH2 ({Ac-C(PEG 40 kDa)}-GYFLFRPRN-NH2) [NMU7, C2 = Cys(PEG)240 kDa]
Body weight (BW) change (in grams) {relative to vehicle} Day 1 (diet-induced obese mice; 10 mg/kg): −1.7 grams | % Food intake (FI) reductions Day 1 (diet-induced obese mice; 10 mg/kg): 44%

Substance: Ac-C2FRVDEEFQSPFASQSRGYFLFRPRN-CONH2 [NMU12] (Ac-C((PEG)2 40 kDa)FRVDEEFQSPFASQSRGYFLFRPRN-NH2)
Body weight (BW) change (in grams) {relative to vehicle} Day 1 (diet-induced obese mice; 10 mg/kg): −1.8 grams | % Food intake (FI) reductions Day 1 (diet-induced obese mice; 10 mg/kg): 51% | Body weight (BW) change (in grams) {relative to vehicle} Day 2 (diet-induced obese mice; 10 mg/kg): −1.3 grams | % Food intake (FI) reductions Day 2 (diet-induced obese mice; 10 mg/kg): 50% | Body weight (BW) change (in grams) {relative to vehicle} Day 3 (diet-induced obese mice; 10 mg/kg): −0.2 grams | % Food intake (FI) reductions Day 3 (diet-induced obese mice; 10 mg/kg): 15% | duration of reductions in food intake and body weight (diet-induced obese mice; NMUR1 knockout animals): two days post dose | duration of reductions in food intake and body weight (diet-induced obese mice; NMUR2 knockout animals): only overnight effects | anorectic effect (diet-induced obese mice; NMUR1/NMUR2 double knockout animals): no effect was observed | anorectic effect (diet-induced obese mice; wild-type animals): highly efficacious | cumulative food intake reduction relative to the vehicle treated group (diet-induced obese mice; chronic administration QD, Q2D or Q3D): 12-27% | food intake (diet-induced obese mice; peripheral administration, Nmur1 knockout mice): able to reduce food intake | crossing the blood-brain barrier (diet-induced obese mice; peripheral administration, inferred from knockout mice): capable of crossing the blood-brain barrier; also recorded: able to cross the blood-brain barrier | body weight (diet-induced obese mice): significant reduction | duration of reductions in food intake (diet-induced obese mice): three days | metabolic stability in vivo (plasma exposure) [1]: greater metabolic stability in vivo | half-life in human plasma: greater than three days

Substance: Ac-C3FRVDEEFQSPFASQSRGYFLFRPRN-CONH2 (Ac-CFRVDEEFQSPFASQSRGYFLFRPRN-NH2; not fully specified (residue 1); printed as Ac-C3FRVDEEFQSPFASQSRGYFLFRPRN-CONH2) [NMU10, C3 = cysteine linked to cholesterol via the side-chain thiol]
Body weight (BW) change (in grams) {relative to vehicle} Day 1 (diet-induced obese mice; 10 mg/kg): −1.2 grams | % Food intake (FI) reductions Day 1 (diet-induced obese mice; 10 mg/kg): 24%

Substance: Ac-C2FRVDEEFQSPFASQSRGYFaWRPRN-CONH2 (Ac-C((PEG)2 40 kDa)FRVDEEFQSPFASQSRGYF[dA]WRPRN-NH2) [NMU14, C2 = Cys(PEG)240 kDa; a = D-Alanine]
Body weight (BW) change (in grams) {relative to vehicle} Day 1 (diet-induced obese mice; 50 mg/kg): −0.1 grams

Substance: Ac-C2-Ttds-FLFRPRN-CONH2 (Ac-CFLFRPRN-NH2; not fully specified (residue 1); printed as Ac-C2-Ttds-FLFRPRN-CONH2) [NMU16, C2 = Cys(PEG)240 kDa]
Body weight (BW) change (in grams) {relative to vehicle} Day 1 (diet-induced obese mice; 10 mg/kg): −0.3 grams | % Food intake (FI) reductions Day 1 (diet-induced obese mice; 10 mg/kg): 11% | Body weight (BW) change (in grams) {relative to vehicle} Day 1 (diet-induced obese mice; 30 mg/kg): −0.9 grams | % Food intake (FI) reductions Day 1 (diet-induced obese mice; 30 mg/kg): 25%

Substance: P1-FRVDEEFQSPFASQSRGYFLFRPRN-CONH2 ({branched PEG 40 kDa}-FRVDEEFQSPFASQSRGYFLFRPRN-NH2) [NMU1]
extension of serum half-life by PEGylation (diet-induced obese mice): three days | Body weight (BW) change (in grams) {relative to vehicle} Day 1 (diet-induced obese mice; 10 mg/kg): −1.4 grams | % Food intake (FI) reductions Day 1 (diet-induced obese mice; 10 mg/kg): 57% | Body weight (BW) change (in grams) {relative to vehicle} Day 2 (diet-induced obese mice; 10 mg/kg): −1.7 grams | % Food intake (FI) reductions Day 2 (diet-induced obese mice; 10 mg/kg): 56% | Body weight (BW) change (in grams) {relative to vehicle} Day 3 (diet-induced obese mice; 10 mg/kg): −0.4 grams | % Food intake (FI) reductions Day 3 (diet-induced obese mice; 10 mg/kg): 22% | efficacy at reducing overnight food intake compared to hNMU-25 (diet-induced obese mice; acute subcutaneous administration): greater efficacy | body weight (diet-induced obese mice): Significant reductions in body weight | duration of reductions in food intake (diet-induced obese mice): three days post-dose | half-life in human plasma: greater than three days
